Measurements published in US8481586B2, “Pyrrolo[2,3-a] carbazoles and use thereof as PIM kinase inhibitors” (Centre National de la Recherche Scientifique, priority 2008, dated 2013).

Legend:
[1] = target: PIM-2 (Homo sapiens (Human), UniProt Q9P1W9); test: inhibition test on kinase PIM-2 (residual activity, IC50); format: biochemical; conditions: product at 10 μmol/L, Table 2, N.I. = not inhibitory; for remaining activity at 10 µM: read-out: Percentage of residual activity PIM-2
Source text: (§1) MKK1, ERK 1, ERK 2, JNK1, JNK2, JNK3, p38a MAPK, p38b MAPK, p38g MAPK, p38s MAPK, ERK8, RSK1, RSK2, PDK1, PKBa, PKBb, SGK1, S6K1, PKA, ROCK2, PRK2, PKCa, PKC zeta, PKD1, MSK1, MNK1, MNK2, MAPKAP-K2, MAPKAP-K3, PRAK, CAMKKa, CAMKKb, CAMK1, SmMLCK, PHK, CHK1, CHK2, GSK3b, CDK2/cyclin A, PLK1, PLK1 (Okadaic acid), Aurora B, Aurora C, AMPK, MARK3, BRSK2, MELK, CK1, CK2, NEK2a, NEK6, NEK7, IKKb, PIM-1, PIM-2, PIM-3, SRPK1, MST2, EF2K, HIPK2, HIPK3, PAK-4, PAK5, PAK6, Src, Lck, CSK.
(§2) The results in terms of residual activity of the kinases after being placed in contact with the compounds of Examples 2, 3 and 5, at a concentration of 10 μM (10 μmol/L), are shown in Table 1 below.
(§3) The higher the residual activity of the kinase tested, the lower the inhibitory activity of the test compounds on the tested kinase.
(§4) The compounds according to the invention were then tested on the kinases PIM-1, PIM-2 and PIM-3.
(§5) The results in terms of percentage of residual activity after placing the compounds according to the invention in contact with each of the kinases PIM-1, PIM-2 and PIM-3 are given in Table 2 below.
(§6) The higher the residual activity, the lower the inhibitory activity of the test compounds.
(§7) The mean inhibitory concentrations (IC50) of certain preferred compounds of the invention were determined in the following manner: the IC50 values were measured after performing the inhibition tests on the kinases PIM-1, PIM-2 and PIM-3 at ten different concentrations for each test compound, and the IC50 value was determined from the dose-inhibition curves obtained.

[2] = target: PIM-1 (Homo sapiens (Human), UniProt P11309); test: inhibition test on kinase PIM-1 (residual activity, IC50); format: biochemical; conditions: product at 10 μmol/L, Table 2, N.I. = not inhibitory; for remaining activity at 10 µM: read-out: Percentage of residual activity PIM-1
Source text: as §1, §2, §3, §4, §5, §6, §7

[3] = target: PIM-3 (Homo sapiens (Human), UniProt Q86V86); test: inhibition test on kinase PIM-3 (residual activity, IC50); format: biochemical; conditions: product at 10 μmol/L; Table 2; N.I. = not inhibitory; read-out: Percentage of residual activity PIM-3
Source text: as §1, §2, §3, §4, §5, §6, §7

Sequence of PIM-2 (Q9P1W9 whole entry, species assumed): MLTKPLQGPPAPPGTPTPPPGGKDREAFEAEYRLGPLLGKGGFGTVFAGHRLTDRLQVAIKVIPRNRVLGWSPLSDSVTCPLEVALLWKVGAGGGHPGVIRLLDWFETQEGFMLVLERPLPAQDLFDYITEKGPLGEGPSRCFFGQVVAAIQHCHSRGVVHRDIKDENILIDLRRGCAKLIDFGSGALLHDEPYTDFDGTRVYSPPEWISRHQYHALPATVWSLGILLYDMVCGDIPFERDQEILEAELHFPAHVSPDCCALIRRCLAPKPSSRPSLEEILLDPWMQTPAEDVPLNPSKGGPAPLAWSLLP
Sequence of PIM-1 (P11309 whole entry, species assumed): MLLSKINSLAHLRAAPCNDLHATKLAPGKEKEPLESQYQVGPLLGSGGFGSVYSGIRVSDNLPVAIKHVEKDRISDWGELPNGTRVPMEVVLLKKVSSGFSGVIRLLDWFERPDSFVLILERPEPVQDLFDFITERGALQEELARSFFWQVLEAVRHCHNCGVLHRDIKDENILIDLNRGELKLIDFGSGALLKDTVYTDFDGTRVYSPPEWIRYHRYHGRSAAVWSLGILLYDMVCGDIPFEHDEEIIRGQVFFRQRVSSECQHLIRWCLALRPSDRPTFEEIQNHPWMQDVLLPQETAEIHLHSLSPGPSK

remaining activity at 10 µM [1]	remaining activity at 10 µM [2]	remaining activity at 10 µM [3]	melting point	Percentage of residual activity PIM-2 [1]	Percentage of residual activity PIM-1 [2]	Compound
28%	3%	9%	–	–	–	O=Cc1c[nH]c2c1ccc1c3cccc(Br)c3[nH]c12 [Example 45, 9-bromo-1,10-dihydropyrrolo[2,3-a]carbazole-3-carbaldehyde]
21%	4%	5%	–	–	–	O=Cc1c[nH]c2c1ccc1c3cc(F)ccc3[nH]c12 [Example 46, 7-Fluoro-1,10-dihydropyrrolo[2,3-a]carbazole-3-carbaldehyde]
11%	5%	3%	–	–	–	O=Cc1c[nH]c2c1ccc1c3cccc(F)c3[nH]c12 [Example 47, 9-Fluoro-1,10-dihydropyrrolo[2,3-a]carbazole-3-carbaldehyde]
14%	1%	10%	–	–	–	CCc1cccc2c1[nH]c1c2ccc2c(C=O)c[nH]c21 [Example 51, 9-ethyl-1,10-dihydropyrrolo[2,3-a]carbazole-3-carbaldehyde]

Continued, compound first:

Compound	remaining activity at 10 µM [1]	remaining activity at 10 µM [2]	remaining activity at 10 µM [3]	melting point	Percentage of residual activity PIM-2 [1]	Percentage of residual activity PIM-1 [2]
O=Cc1c[nH]c2c1ccc1c3cc(-c4ccc(OC(F)(F)F)cc4)ccc3[nH]c12 [Example 42, 7-(4-trifluoromethoxyphenyl)-1,10-dihydropyrrolo[2,3-a]carbazole-3-carbaldehyde]	70%	29%	31%	–	–	–
O=Cc1c[nH]c2c1ccc1c3ccc(Br)cc3[nH]c12 [Example 43, 8-bromo-1,10-dihydropyrrolo[2,3-a]carbazole-3-carbaldehyde]	39%	44%	15%	> 250 °C	–	–
O=Cc1c[nH]c2c1ccc1c2[nH]c2cccc(Br)c21 [Example 44, 6-bromo-1,10-dihydropyrrolo[2,3-a]carbazole-3-carbaldehyde]	6%	2%	5%	–	–	–
O=Cc1c[nH]c2c1ccc1c2[nH]c2cc(Cl)cc(Cl)c21 [Example 48, 6,8-dichloro-1,10-dihydropyrrolo[2,3-a]carbazole-3-carbaldehyde]	34%	8%	6%	–	–	–
N#Cc1ccc2[nH]c3c(ccc4c(C=O)c[nH]c43)c2c1 [Example 49, 3-formyl-1,10-dihydropyrrolo[2,3-a]carbazole-7-carbonitrile]	–	92%	14%	–	N.I.	–
O=Cc1c[nH]c2c1ccc1c3cc([N+](=O)[O-])ccc3[nH]c12 [Example 50, 7-nitro-1,10-dihydropyrrolo[2,3-a]carbazole-3-carbaldehyde]	–	–	35%	–	N.I.	N.I.
Cc1ccc2c(c1)[nH]c1c2ccc2c(C=O)c[nH]c21 [Example 52, 8-methyl-1,10-dihydropyrrolo[2,3-a]carbazole-3-carbaldehyde]	39%	15%	8%	–	–	–
